Data taken from US20090106856A1, “Selection System for Wheat” (BASF PLANT SCIENCE GMBH, priority 2005, published 2009).

Assays:
[1] = tested on: wheat callus; test: Killing curve: callus growth and regeneration under constant selection pressure; format: cell-based, Triticum aestivum
Method: To define the sensitivity of wheat tissues during transformation when D-Serine and D-Alanine are present as selection agents regeneration experiments with immature embryos were designed. Immature embryos were immersed in PAWinf medium and subjected to all steps of callus induction, callus maintaining and regeneration in transformation protocol above.
Sensitivity of callus tissue under constant selection pressure were evaluated using range of concentrations: 0.5 mM, 1 mM, 3 mM, 5 mM, 10 mM, 25 mM, 50 mM. Experiments were performed in triplicates. Percentage of embryos forming embryos-genic callus was scored on PAW-4 regeneration medium. At the end of shoots elongation regeneration capacity of the calluses was scored as calluses regenerating shoots and number of shoots per callus.
Range of the tested concentrations 0.5-50 mM D-ser and D-ala are evaluated in replicating regeneration experiments. The effect of selective compounds is estimated during callus growth and shoots formation following transformation procedure on medium with D-serine and D-alanine (Table 4).

[2] = tested on: wheat in vitro shoots; test: Killing curve: rooting of in vitro shoots; format: in vivo, Triticum aestivum
Excerpt: […] The effect of selection agents was observed two and tree weeks later. Number of plantlets with growing roots and green leaves were scored.
In vitro regenerated shoots from media lacking the selection compounds were collected and transferred on medium for rooting (½ MS salts hormone free). Roots formation, growth of the shoots and leaves elongation was scored two and four weeks later after sub culturing of these shoots to the medium supplemented with D-amino acids (Table 5).

[3] = tested on: wheat immature embryos; test: Killing curve: in vitro germination of immature embryos and seedling growth; format: in vivo, Triticum aestivum
Method: In order to establish effective concentrations of D-serine and D-alanine on inhibiting growth of tissue cultured wheat cells, a bioassay system using immature embryos was applied. Immature embryos 2 mm in length were dissected onto germination medium with the selection agents, and incubated at 27° C. in light. The number of germinated embryos with well-developed shoots and brunched shoots were scored after 14 days.
Immature embryos 2 mm in size were isolated from the sterilized caryopses. The embryos were cultured on PAW-5 hormone free medium for germination in dark. Seedlings growth on D-amino acid selection was observed after 2 weeks. Most of the embryos germinated but the seedlings growth was inhibited when roots emerge and the uptake of the selection compound was direct from the medium. The Lethal Dose (LD 100) for seedlings germination and growth was 1 mM concentration of both D-amino acids tested (Table 6). Seedlings derived from embryos isolated from the immature caryopsis without endosperms were susceptible to the selection in concentration higher than 1 mM (FIG. 8).

[4] = tested on: wheat variety Canon immature embryos / embryogenic callus; test: Agrobacterium-mediated transformation with dao1 constructs and selection of transgenic plants; format: cell-based, Triticum aestivum; conditions: pRLM205 (dao1 original), 5 mM selection
Method: (§1) Explants were washed with PAW-Inf. medium and immersed in the above-described bacterial suspension for 2 h at 26° C. At the end of infection the explants were placed with scutellum side up on PAW-1 medium. The residual bacterial suspension is removed by pipeting out and air-drying of the infected embryos by opening plates for 15 min on the sterile banch. Plates were sealed with Parafilm and placed in thermostat at 26° C. in the dark for 5-6 days co-cultivation.
(§2) After co-cultivation period the explants were washed with sterile water and 500 mg/L Cefotaxime and filter paper dried before being transferred to PAW-2 callus induction-recovery medium containing 160 mg/l Timentin for 14 days (7 days dark/7 days semi light; 13.2 μmol m^−2s^−1). Explants with embryogenic callus were subculture to PAW-2 callus-proliferation medium containing 160 mg/l Timentin and corresponding selection 5 mM D-serine or 5 mM D-alanine or 3 mg/l bialaphos. In some experiments the selection on D-amino acids was starting on PAW-2 callus induction medium 0, 7, 14 and 21 days after co cultivation. Embryogenic callus was subculture twice on fresh selective medium for callus maintaining and regeneration on PAW-4 medium with corresponding selection. Cultures were maintained at 23° C. on light 60.2 μmol m^−2s^−1. Regenerated shoots were subculture to PAW-5 hormone free medium with corresponding selection (5 mM D-serine or 5 mM D-alanine or 3 mg/l bialaphos) for further growth and rooting. All media used in the transformation experiments were filter sterilized and are listed in above. After analyses transgenic plants were transferred to soil and placed for further growth in greenhouse. 1.4 Molecular and expression studies of the transgenic plants
Freshly isolated immature embryos from Canon were inoculated with Agrobacterium. In all experiments Agrobacterium tumefactions super binary vector system based on LBA4404 (pSB1) was used. The constructs pRLM205 containing the original dao1 gene and pRLM226 carrying modified Daol. Both constructs contain gusINT reporter marker gene (FIGS. 3, I and II). Following co cultivation the explants were transferred on callus induction PAW-2 selection free medium containing 160 mg/l Timentin to inhibit bacterial growth for 14 days. For selection embryogenic callus was transferred to PAW-2 selection medium containing 5 mM D-serine or 5 mM D-alanine respectively. Furthermore calli were sub cultured to fresh corresponding selection PAW-2 medium for maintaining. Embryogenic calli were trans-ferred on PAW-4 selection medium for regeneration 5-6 weeks after transformation. The emerging plantlets were further grown and rooted on PAW-5 hormone free selection medium. Well-developed and rooted on selection putative transgenic regenerants were selected in vitro within. When D-alanine was used as selection compound similar effects in callus growth, shoots regeneration and rooting of transgenic plants or non transgenic escapes selected on D-serine was observed. Both selection agents resulted with 1.1% to 1.2% transformation efficiency and no escape rate (Table 9).

[5] = tested on: Transgenic T1 dao1 seedlings; test: Negative selection of transgenic T1 dao1 seedlings; format: in vivo, Triticum aestivum
Method: T1 immature embryos were assayed with bioassay for germination of immature embryos on selection. […] Furthermore transgenic T1 seedlings were tested for negative selection using D-isoleucine and D-valine containing medium. Transgenic T1 dao1 seedlings were sensitive to the concentrations range from 10 to 30 mM D-isoleucine and 15-20 mM D-valine (FIG. 11).

[6] = tested on: wheat variety Canon immature embryos / embryogenic callus; test: Agrobacterium-mediated transformation with dsdA constructs and selection of transgenic plants; format: cell-based, Triticum aestivum
Method: as §1, §2
Freshly isolated immature embryos from Canon were inoculated with Agrobacterium. In all experiments Agrobacterium tumefacience LBA4404 (pSB1/pRLM167) (SEQ ID NO: 11) was used. The pRLM167 is a super binary vector containing p-ZmUBI+I::c-dsdA::t-OCS and p-ZmUBI+I::c-PAT::t-OCS selectable marker genes in expression cassettes (FIG. 1). Following co cultivation the explants were given a chance to recover for 14 days on callus induction selection free medium containing 160 mg/l Timentin to inhibit bacterial growth. Under these conditions 59% to 76% of the embryogenic callus developed over the all surface of immature embryos. Embryogenic callus was split in two and transferred to two the corresponding selection medium containing 5-mM D-serine or 3 mg/l bialaphos. During subsequent growth of callus, regeneration of plantlets, shoots elongation and roots formation the respective selection pressure was maintained in each of the corresponding medium. After 7 weeks of selection 38%-47% of the embryogenic calli regenerated with plants when selected on bialaphos or on D-serine respectively. Further selection of the regenerants was performed during the elongation and rooting of the regenerants for an additional 3 weeks. Intact in vitro transgenic shoots were selected within 10-12 weeks after co cultivation.
Freshly isolated immature embryos from Canon were inoculated with Agrobacterium. In all experiments Agrobacterium tumefacience super binary vector system based on LBA4404 (pSB1) was used. The constructs pRLM179, pRLM166, pRLM151 (FIG. 2. I, II and III) containing dsdA selectable marker gene alone or with a second gene (ahas or gusINT) were used for transformation. The explants were cultured on selection medium right away after co-cultivation with Agrobacterium or were cultivated on callus induction—recovery medium for 7, 14 and 21 days containing only 160 mg/l Timentin for inhibiting bacterial growth. Furthermore calli were sub cultured to fresh selection PAW-2 medium for proliferation. Embryogenic calli were transferred on PAW-4 selection medium for regeneration 5-6 weeks after transformation. The emerging plantlets were further grown and rooted on PAW-5 hormone free selection medium. […]

[7] = construct pRLM167 (dsdA/pat), selection on 5 mM D-serine or 3 mg/l bialaphos

C[C@@H](N)C(=O)O [D-alanine]
Regeneration capacity of the calli reduced ([1]; 5 mM): 70% | Regenerated Embryogenic Lines (%) ([1]; Bobwhite, 0.5 mM): 85% | Regenerated Embryogenic Lines (%) ([1]; Bobwhite, 3 mM): 52% | Regenerated Embryogenic Lines (%) ([1]; Bobwhite, 5 mM): 14% | Regenerated Embryogenic Lines (%) ([1]; Bobwhite, 10 mM): 4% | Regenerated Embryogenic Lines (%) ([1]; Bobwhite, 15 mM): 0% | Regenerated Embryogenic Lines (%) ([1]; Bobwhite, 25 mM): 0% | Regenerated Embryogenic Lines (%) ([1]; Bobwhite, 50 mM): 0% | Regenerated Embryogenic Lines (%) ([1]; Canon, 0.5 mM): 63% | Regenerated Embryogenic Lines (%) ([1]; Canon, 3 mM): 44% | Regenerated Embryogenic Lines (%) ([1]; Canon, 5 mM): 19% | Regenerated Embryogenic Lines (%) ([1]; Canon, 10 mM): 3% | Regenerated Embryogenic Lines (%) ([1]; Canon, 15 mM): 0% | Regenerated Embryogenic Lines (%) ([1]; Canon, 25 mM): 0% | Regenerated Embryogenic Lines (%) ([1]; Canon, 50 mM): 0% | lethal dose (LD 100) for regeneration response of callus ([1]; tested in both varieties): 15 mM | root formation of non-transgenic shoots ([2]; 5 mM): not able to form roots | Rooted Shoots (%) ([2]; Bobwhite, 1 mM): 34% | Rooted Shoots (%) ([2]; Bobwhite, 3 mM): 13% | Rooted Shoots (%) ([2]; Bobwhite, 5 mM): 1% | Rooted Shoots (%) ([2]; Bobwhite, 10 mM): 0% | Rooted Shoots (%) ([2]; Bobwhite, 15 mM): 0% | Rooted Shoots (%) ([2]; Bobwhite, 25 mM): 0% | Rooted Shoots (%) ([2]; Canon, 1 mM): 36% | Rooted Shoots (%) ([2]; Canon, 3 mM): 11% | Rooted Shoots (%) ([2]; Canon, 5 mM): 1% | Rooted Shoots (%) ([2]; Canon, 10 mM): 0% | Rooted Shoots (%) ([2]; Canon, 15 mM): 0% | Rooted Shoots (%) ([2]; Canon, 25 mM): 0% | In vitro germination, Immature Embryos (%) ([3]; Bobwhite, 0.5 mM): 56% | In vitro germination, Immature Embryos (%) ([3]; Bobwhite, 1 mM): 0% | In vitro germination, Immature Embryos (%) ([3]; Bobwhite, 5 mM): 0% | In vitro germination, Immature Embryos (%) ([3]; Bobwhite, 10 mM): 0% | In vitro germination, Immature Embryos (%) ([3]; Canon, 0.5 mM): 40% | In vitro germination, Immature Embryos (%) ([3]; Canon, 1 mM): 0% | In vitro germination, Immature Embryos (%) ([3]; Canon, 5 mM): 0% | In vitro germination, Immature Embryos (%) ([3]; Canon, 10 mM): 0% | ER (%) Escape Rate [4]: 0% | TE (%) Transformation Efficiency [4]: 1.27%

CC(C)[C@@H](N)C(=O)O [D-valine]
concentration range to which seedlings were sensitive (negative selection) [5]: 15 to 20 mM

C[C@H](NC(=O)[C@H](C)NC(=O)[C@@H](N)CCP(C)(=O)O)C(=O)O [bialaphos]
ER Escape Rate (% of non-transgenic regenerants out of all selected plants) [6, 7]: 59% | TE Transformation Efficiency (% of transgenic plants out of the explants) [6, 7]: 2.1% | embryogenic calli regenerated with plants ([6]; pRLM167, after 7 weeks of selection, 5 mM D-serine or 3 mg/l bialaphos): 38%
